According to patent US8222416B2, “Azaindole glucokinase activators” (Hoffmann-La Roche Inc., priority 2009, dated 2012):

biological target: T1, Recombinant human liver GK1 (GST-GK) (Homo sapiens, UniProt P35557); experiment: In vitro glucokinase activity assay (G6PDH-coupled, NADH, OD340); assay type: biochemical; details: concentration of activator that produced a 50% increase in the activity of GK; 5 mM D-glucose, 30° C.
T1 construct: made in house; host or cells: E. coli
T1 sequence (P35557 1-466 isoform P35557-2): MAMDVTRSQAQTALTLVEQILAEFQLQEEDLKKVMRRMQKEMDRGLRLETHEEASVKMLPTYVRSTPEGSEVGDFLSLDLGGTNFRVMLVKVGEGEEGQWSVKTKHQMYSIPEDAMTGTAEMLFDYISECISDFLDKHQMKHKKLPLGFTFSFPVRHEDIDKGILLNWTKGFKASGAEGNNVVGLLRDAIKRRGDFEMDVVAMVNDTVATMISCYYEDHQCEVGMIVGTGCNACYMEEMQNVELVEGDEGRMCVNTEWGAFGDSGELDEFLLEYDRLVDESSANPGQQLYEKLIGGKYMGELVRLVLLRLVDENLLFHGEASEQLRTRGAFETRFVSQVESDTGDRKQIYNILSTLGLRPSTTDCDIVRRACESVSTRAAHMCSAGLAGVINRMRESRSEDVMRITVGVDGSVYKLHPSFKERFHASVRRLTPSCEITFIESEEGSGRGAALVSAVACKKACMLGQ
Procedure: Glucokinase In Vitro Assay Protocol: Glucokinase (GK) was assayed by coupling the production of glucose-6-phosphate to the generation of NADH with glucose-6-phosphate dehydrogenase (G6PDH, 0.75-1 kunits/mg; Boehringer Mannheim, Indianapolis, Ind.) from Leuconostoc mesenteroides as the coupling enzyme (Scheme 2).
Recombinant human liver GK1 was expressed in E. coli as a glutathione S-transferase fusion protein (GST-GK) [Liang et al, 1995] and was purified by chromatography over a glutathione-Sepharose 4B affinity column using the procedure provided by the manufacturer (Amersham Pharmacia Biotech, Piscataway, N.J.).
The assay was conducted at 30° C. in a flat bottom 96-well tissue culture plate from Costar (Cambridge, Mass.) with a final incubation volume of 120 μL. The incubation reaction contained the following: 25 mM Hepes buffer (pH 7.1), 25 mM KCl, 5 mM D-glucose, 1 mM ATP, 1.8 mM NAD, 2 mM MgCl2, 1 μM sorbitol-6-phosphate, 1 mM dithiothreitol, test drug or 10% dimethylsulfoxide, ˜7 units/ml G6PDH, and GK (see below). All organic reagents were >98% pure and were from Boehringer Mannheim with the exceptions of D-glucose and Hepes which were from Sigma Chemical Co, St Louis, Mo. Test compounds were dissolved in dimethylsulfoxide and were added to the incubation reaction minus GST-GK in a volume of 12 μL to yield a final dimethylsulfoxide concentration of 10%. This mix was pre-incubated in the temperature controlled chamber of a SPECTRAmax 250 microplate spectrophotometer (Molecular Devices Corporation, Sunnyvale, Calif.) for 10 minutes to allow temperature equilibrium and then the reaction was started by the addition of 20 μL GST-GK.
After addition of enzyme, the increase in optical density (OD) at 340 nm was monitored spectrophotometrically to determine the rate of change (OD340 per min). The GK activity (OD340/min) in control wells (10% dimethylsulfoxide minus GK activators) was compared with the activity in wells containing test GK activators, and the concentration of activator that produced a 50% increase in the activity of GK, i.e., the SC1.5, was calculated.

Compared with CC(O)c1cnc2[nH]c(C(CC3CCCC3)c3ccc(S(C)(=O)=O)cc3)cc2c1 (single isomer, unassigned) [Example 9, 1-{2-[2-Cyclopentyl-1-(4-methanesulfonyl-phenyl)-ethyl]-1H-pyrrolo[2,3-b]pyridin-5-yl}-ethanol], CS(=O)(=O)c1ccc([C@@H](CC2CCCC2)c2cc3cc(C(=O)O)cnc3[nH]2)cc1 (single isomer, unassigned) [Example 56] is 3.2-fold lower in SC1.5: 10.9 µM for the first, 3.4 µM for the second.

First: COc1cnc2[nH]c([C@H](CC3CCCCC3)c3ccc(S(C)(=O)=O)cc3)cc2c1 (single isomer, unassigned) [Example 10]
Second: COC(=O)c1cnc2[nH]c([C@H](CC3CCCC3)c3ccc(S(C)(=O)=O)cc3)cc2c1 (single isomer, unassigned) [Example 55]
The SC1.5 of the first is 2.3-fold lower: 0.218 µM for the first, 0.512 µM for the second.

CN(C)C(=O)COc1cnc2[nH]c([C@H](CC3CCCC3)c3ccc(S(C)(=O)=O)cc3)cc2c1 (single isomer, unassigned) [Example 14] and CC(C)(CO)Oc1cnc2[nH]c([C@H](CC3CCCC3)c3ccc(S(C)(=O)=O)cc3)cc2c1 (single isomer, unassigned) [Example 29] are within 1.5-fold of each other in SC1.5: 0.742 µM for the first, 1.1 µM for the second.

Going from COc1cnc2[nH]c(C(CC3CCCO3)c3ccc(S(C)(=O)=O)cc3)cc2c1 (single isomer, unassigned) [Example 23, 2-[1-(4-Methanesulfonyl-phenyl)-2-(tetrahydro-furan-2-yl)-ethyl]-5-methoxy-1H-pyrrolo[2,3-b]pyridine] to CNC(=O)c1cnc2[nH]c(C(CC3CCCC3)c3ccc(S(C)(=O)=O)cc3)cc2c1 (stereo not shown) [Example 5, 2-[2-Cyclopentyl-1-(4-methanesulfonyl-phenyl)-ethyl]-1H-pyrrolo[2,3-b]pyridin-5-carboxylic acid methylamide], the SC1.5 falls from 21.9 µM to 1.9 µM (12-fold).

Going from COc1cnc2[nH]c(C(CC3CCCO3)c3ccc(S(C)(=O)=O)cc3)cc2c1 (single isomer, unassigned) [Example 24, 2-[1-(4-Methanesulfonyl-phenyl)-2-(tetrahydro-furan-2-yl)-ethyl]-5-methoxy-1H-pyrrolo[2,3-b]pyridine] to CNC(=O)c1cnc2[nH]c([C@H](CC3CCCC3)c3ccc(S(C)(=O)=O)cc3)cc2c1 [Example 6, 2-[2-Cyclopentyl-1(R)-(4-methanesulfonyl-phenyl)-ethyl]-1H-pyrrolo[2,3-b]pyridin-5-carboxylic acid methylamide], the SC1.5 falls from 2.0 µM to 1.0 µM (2-fold).

First: COc1cnc2[nH]c(C(CC3CCCO3)c3ccc(S(C)(=O)=O)cc3)cc2c1 (single isomer, unassigned) [Example 25, 2-[1-(4-Methanesulfonyl-phenyl)-2-(tetrahydro-furan-2-yl)-ethyl]-5-methoxy-1H-pyrrolo[2,3-b]pyridine]
Second: CS(=O)(=O)c1ccc([C@@H](CC2CCCC2)c2cc3cc(C#N)cnc3[nH]2)cc1 (single isomer, unassigned) [Example 53]
The SC1.5 of the first is 150-fold higher: 22.0 µM for the first, 0.144 µM for the second.

Compared with CS(=O)(=O)c1ccc(C(O)(CC2CCCC2)c2cc3cc(F)cnc3[nH]2)cc1 (single isomer, unassigned) [Example 49, 2-Cyclopentyl-1-(5-fluoro-1H-pyrrolo[2,3-b]pyridin-2-yl)-1-(4-methanesulfonyl-phenyl)-ethanol], CS(=O)(=O)c1ccc(C(O)(CC2CCCC2)c2cc3cccnc3[nH]2)cc1 (single isomer, unassigned) [Example 86, 2-Cyclopentyl-1-(4-methanesulfonyl-phenyl)-1-(1H-pyrrolo[2,3-b]pyridin-2-yl)-ethanol] is 2.4-fold higher in SC1.5: 0.354 µM for the first, 0.857 µM for the second.

Going from N#Cc1ccc([C@@H](CC2CCCC2)c2cc3cc(F)cnc3[nH]2)cc1 (single isomer, unassigned) [Example 51] to CC(C)(O)c1ccc([C@@H](CC2CCCC2)c2cc3cc(F)cnc3[nH]2)cc1F (single isomer, unassigned) [Example 104], the SC1.5 falls from 0.343 µM to 0.081 µM (4.2-fold).

Going from CC(C)(O)c1ccc([C@@H](CC2CCCC2)c2cc3cc(C(=O)O)cnc3[nH]2)cc1F (single isomer, unassigned) [Example 58] to Cc1cnc2[nH]c([C@H](CC3CCCC3)c3ccc(C(C)(C)O)c(F)c3)cc2c1 (single isomer, unassigned) [Example 129], the SC1.5 falls from 9.5 µM to 2.6 µM (3.7-fold).

Going from CS(=O)(=O)c1ccc(C(CC2CCC(=O)C2)c2cc3cccnc3[nH]2)cc1 (single isomer, unassigned) [Example 78, 3-[2-(4-Methanesulfonyl-phenyl)-2-(1H-pyrrolo[2,3-b]pyridin-2-yl)-ethyl]-cyclopentanone] to CS(=O)(=O)c1ccc([C@@H](CC2CCCC2)c2cc3cc(C(F)(F)F)cnc3[nH]2)cc1 (single isomer, unassigned) [Example 127], the SC1.5 falls from 11.9 µM to 0.607 µM (20-fold).

Compared with CS(=O)(=O)c1ccc(C(CC2CCC(=O)C2)c2cc3cccnc3[nH]2)cc1 (single isomer, unassigned) [Example 79, 3-[2-(4-Methanesulfonyl-phenyl)-2-(1H-pyrrolo[2,3-b]pyridin-2-yl)-ethyl]-cyclopentanone], CCC(O)(CC)c1ccc([C@@H](CC2CCCC2)c2cc3cccnc3[nH]2)cc1 (single isomer, unassigned) [Example 84] is 29-fold higher in SC1.5: 0.201 µM for the first, 5.9 µM for the second.

First: CCOC(CC1CCCC1)(c1ccc(S(C)(=O)=O)cc1)c1cc2cccnc2[nH]1 (single isomer, unassigned) [Example 87, 2-[2-Cyclopentyl-1-ethoxy-1-(4-methanesulfonyl-phenyl)-ethyl]-1H-pyrrolo[2,3-b]pyridine]
Second: CC(C)(O)c1ccc([C@@H](CC2CCCC2)c2cc3cccnc3[nH]2)cc1F (single isomer, unassigned) [Example 96]
The SC1.5 of the first is 76-fold higher: 11.0 µM for the first, 0.144 µM for the second.

First: CC(C)(O)c1ccc([C@@H](CC2CCOCC2)c2cc3cc(F)cnc3[nH]2)cc1F (single isomer, unassigned) [Example 98]
Second: CC(C)C[C@H](c1ccc(C(C)(C)O)c(F)c1)c1cc2cc(F)cnc2[nH]1 (single isomer, unassigned) [Example 106]
The SC1.5 of the first is 3.5-fold higher: 0.67 µM for the first, 0.189 µM for the second.

Going from CC(C)C[C@H](c1ccc(S(C)(=O)=O)cc1)c1cc2cc(F)cnc2[nH]1 (single isomer, unassigned) [Example 100] to CC(C)C[C@H](c1ccc(S(=O)(=O)CCO)cc1)c1cc2cc(F)cnc2[nH]1 (single isomer, unassigned) [Example 102], the SC1.5 rises from 0.201 µM to 0.427 µM (2.1-fold).

First: CC(C)CC(c1ccc(S(C)(=O)=O)cc1)c1cc2cc(C(=O)NC(C)C)cnc2[nH]1 (stereo not shown) [Example 1, 2-[1-(4-Methanesulfonyl-phenyl)-3-methyl-butyl]-1H-pyrrolo[2,3-b]pyridin-5-carboxylic acid isopropylamide]
Second: CNC(=O)c1cnc2[nH]c(C(CC(C)C)c3ccc(S(C)(=O)=O)cc3)cc2c1 (stereo not shown) [Example 2, 2-[1-(4-Methanesulfonyl-phenyl)-3-methyl-butyl]-1H-pyrrolo[2,3-b]pyridin-5-carboxylic acid methylamide]
The SC1.5 of the first is 1.7-fold higher: 19.0 µM for the first, 11.3 µM for the second.

CS(=O)(=O)c1ccc(C(CC2CCCC2)c2cc3cc(C(=O)N4CCOCC4)cnc3[nH]2)cc1 (stereo not shown) [Example 4, {2-[2-Cyclopentyl-1-(4-methanesulfonyl-phenyl)-ethyl]-1H-pyrrolo[2,3-b]pyridin-5-yl}-morpholin-4-yl-methanone] showed an SC1.5 of 10.5 µM.
